Data reported in patent US12410148B2, “Antibody drug conjugates” (Pharma Mar, S.A., priority 2013, dated 2025).
pIC50: −log10 of the molar value. In brackets after ≈: the same amount, converted by molar mass. Several values for one entry are separate records, joined by “and”; a condition that tells them apart may be missing. Equal values may be shown once. Read-outs that look alike come from different tables or passages of the source.

Columns and labels:
[1] = system: MCF-7 cells; assay: In vitro cytotoxicity, SRB assay, 72 h dose-response; assay type: cell-based; settings: Homo sapiens, MCF7, 72 h
Text: (§1) Nature Protocols, 1, 1112-1 116.

[2] = system: MDA-MB-231 cells; assay: as above; assay type: cell-based; settings: Homo sapiens, MDA-MB-231, 72 h
Text: as §1

[3] = system: NB-4 cells; assay: In vitro cytotoxicity, MTT assay, 72 h dose-response; assay type: cell-based; settings: Homo sapiens, CD13+
Protocol: (§6) Briefly, MTT solution was added to the cell cultures at a final concentration of 0.5 mg/mL, and incubated for 1 to 4 hours at 37° C. until formazan crystals are formed. Culture medium is carefully removed from the cell cultures and formazan crystals resuspended in 100 μl DMSO. […] Cell survival was expressed as percentage of control, untreated cell survival.

[4] = system: U937 cells; assay: as above; assay type: cell-based, human; settings: CD13+, CD4+
Protocol: as §6

[5] = system: RPMI-8226 cells; assay: as above; assay type: cell-based, human; settings: CD13−, CD20−, CD5−, CD4−
Protocol: as §6

[6] = system: Karpas-299 cells; assay: as above; assay type: cell-based, human; settings: CD20−, CD5+, CD4+
Protocol: as §6

[7] = system: MOLT-4 cells; assay: as above; assay type: cell-based; settings: Homo sapiens, CD5+
Protocol: as §6

[8] = system: Raji-clone #18 (null CD5 expression); assay: as above; assay type: cell-based; settings: Homo sapiens; for pIC50: clone #18, CD5 null
Protocol: as §6

[9] = system: NB4, U937, Raji and RPMI-8226 cells; assay: In vitro cytotoxicity, whole CD13 cell panel; settings: for IC50: Homo sapiens
Text: (§2) All tumor cell lines used in this study were obtained from the American Type Culture Collection (ATCC), unless otherwise indicated; BT-474 (ATCC HTB-20, Breast Ductal Carcinoma), SK-BR-3 (ATCC HTB-30, Breast Adenocarcinoma) and HCC-1954 (ATCC CRL-2338, Breast Ductal Carcinoma), all HER2+; MDA-MB-231 (ATCC HTB-26, Breast Adenocarcinoma) and MCF-7 (ATCC HTB-22 Breast Adenocarcinoma, pleural effusion), all HER2-; SK-OV-3 (ATCC HTB-77, Ovary Adenocarcinoma), HER2+; NB-4 (Acute Promyelocytic Leukemia, APL, CD13+, M. Lanotte et al. (1991) NB4, a maturation inducible cell line with t(15;17) marker isolated from a human acute promyelocytic leukemia (M3). Blood 77, 1080-1086), (CD13+) and U937 (ATCC CRL-1 593.2, Histiocytic Lymphoma, CD13+ and CD4+); Raji (ATCC CCL-86, Burkitt's Lymphoma) (CD13−, CD20+, CD5−, and CD4−); RPMI-8226 (ATCC CRM-CCL-155, Multiple Myeloma) (CD13−, CD20−, CD5− and CD4−); Karpas-299 (DSMZ ACC-31, Non-Hodgkin's Lymphoma) (CD20−, CD5+, and CD4+); MOLT-4 (ATCC CRL-1 582, Acute Lymphoblastic Leukemia, CD5+). In addition, the two Raji cell (ATCC CCL-86, Burkitt's Lymphoma) clones used in this study Raji-clone #10 (high CD5 expression) and Raji-clone18 (null CD5 expression), were provided by Dr. Juan M. Zapata (Instituto de Investigaciones Biomedicas “Alberto Sols”, CSIC-UAM, Madrid, Spain). Cells were maintained at 37° C., 5% CO 2 and 95% humidity in Dulbecco's Modified Eagle's Medium (DMEM) (for MCF and MDA-MB-231 cells), RPMI-1640 (for SK-BR-3, HCC-1954, NB-4, U937, Raji, RPMI-8226, Karpas-299, MOLT-4, Raji-clone #10 and Raji-clone #18 cells), RPMI-1640+1% ITS (for BT-474 cells) or McCOyS (for SK-OV-3 cells), all media supplemented with 10% Fetal Calf Serum (FCS) and 100 units/mL penicillin and streptomycin.
(§3) For suspension cells: A standard metabolic assay using MTT (3-(4,5-Dimethylthiazol-2-yl)-2,5-diphenyltetrazolium bromide) was adapted for quantitative measurement of cell growth and cytotoxicity, as described in T. Mosmann (1983) Rapid colorimetric assay for cellular growth and survival: Application to proliferation and cytotoxicity assays. J. Immunol. Meth., 65, 55-63. Briefly, MTT solution was added to the cell cultures at a final concentration of 0.5 mg/mL, and incubated for 1 to 4 hours at 37° C. until formazan crystals are formed. Culture medium is carefully removed from the cell cultures and formazan crystals resuspended in 100 μl DMSO. After mixing to assure solubilization, the quantity of formazan (presumably directly proportional to the number of viable cells) is measured by recording changes in absorbance at 570 nm using a plate reading spectrophotometer. Cell survival was expressed as percentage of control, untreated cell survival.
(§4) The IC50 value refers to the concentration of compound inducing a 50% of cell death as compared to the control cell survival.
The in vitro cytotoxic activity of ADC9 along with the parent cytotoxic Compounds 1 and 4, was evaluated against different human tumor cell lines expressing or not the CD13 receptor, including NB4 and U937 (CD13 positive cells) and Raji and RPMI-8226 (CD13 negative cells). Standard dose-response (DR) curves for 72 hours were performed.

[10] = system: Raji, RPMI-8226 and Karpas-299 cells; assay: In vitro cytotoxicity, whole CD20 cell panel; settings: Homo sapiens
Text: as §2, §3, §4
The in vitro cytotoxic activity of ADC12 along with the parent cytotoxic Compounds 1, 4, and 40, was evaluated was assayed against different human cancer cell lines expressing or not the CD20 antigen, including Raji (CD20 positive cells); RPMI-8226 and Karpas-299 (CD20 negative cells). Standard dose-response (DR) curves for 72 hours were performed.

[11] = system: Karpas-299, MOLT-4, Raji and RPMI-8226 cells; assay: In vitro cytotoxicity, whole CD5 cell panel; settings: for IC50: Homo sapiens
Text: as §2, §3, §4
(§5) The in vitro cytotoxic activity of ADC14 along with the parent cytotoxic Compounds 1, 4, and 40, was evaluated against different human cancer cell lines expressing or not the CD5 antigen, including Karpas-299 and MOLT-4 (both CD5+); Raji and RPMI-8226 (both CD5−). Standard dose-response (DR) curves for 72 hours were performed.

[12] = system: Karpas-299, U937, Raji and RPMI-8226 cells; assay: In vitro cytotoxicity, whole CD4 cell panel; settings: Homo sapiens
Text: as §2, §3, §4
as §5, with “ADC16” for “ADC14”, “CD4” for “CD5”, “U937” for “MOLT-4”, “CD4+);” for “CD5+);”, “CD4−).” for “CD5−).”

[13] = Homo sapiens, RPMI-8226, 72 h, read-out: IC50
[14] = Homo sapiens, KARPAS-299, 72 h, read-out: IC50
[15] = read-out: IC50 values across the different cell lines tested (range)
[16] = read-out: mean IC50 value across the whole cell panel

SMILES | IC50 ([1]; HER2−, 72 h, read-out: IC50) | IC50 ([2]; HER2−, 72 h, read-out: IC50) | IC50 [3] | IC50 [5, 13] | IC50 [6, 14] | IC50 [7] | IC50 ([8]; C#18 (null CD5)) | pIC50 [8] | IC50 [9, 15] | IC50 [9, 16] | IC50 [10, 15] | IC50 [10, 16] | IC50 [11, 15] | IC50 [11, 16] | IC50 [12, 15] | IC50 [12, 16] | IC50 [4] | pIC50 ([4]; read-out: IC50) | IC50 [5] | pIC50 ([5]; read-out: IC50) | other results
COC1=CC[C@@H]([C@@H](C)/C=C(C)/C=C\C=C/C(=O)N[C@H](C(=O)N/C=C\C[C@H](C/C=C(\C)Cl)OC(=O)NCCCNC(=O)CCCCCN2C(=O)C=CC2=O)C(C)(C)C)OC1=O [Compound 1] | 0.0037 µg/mL and 4.32 nM | 0.0028 µg/mL and 3.27 nM | 0.000805 µg/mL and 0.939 nM | 0.0025 µg/mL and 2.92 nM | 0.0019 µg/mL and 2.22 nM | 0.00335 µg/mL and 3.91 nM | 0.038 µg/mL and 44.4 nM | 7.36 | 0.0008 µg/mL to 0.0063 µg/mL and 0.94 nM to 7.3 nM | 0.0028 µg/mL and 3.3 nM | 0.0016 µg/mL to 0.0028 µg/mL and 1.9 nM to 3.3 nM | 0.0021 µg/mL and 2.5 nM | 1.8 to 11 ng/mL (≈ 2.1 to 12.8 nM) | 0.0046 µg/mL and 5.3 nM | 0.0015 µg/mL to 0.0073 µg/mL and 1.7 nM to 8.6 nM | 0.0034 µg/mL and 3.9 nM |  |  |  |  | IC50 ([4]; Homo sapiens, U-937, 72 h, read-out: IC50): 0.00165 µg/mL and 1.93 nM
COC1=CC[C@@H]([C@@H](C)/C=C(C)/C=C\C=C/C(=O)N[C@H](C(=O)N/C=C\C[C@H](C/C=C(\C)Cl)OC(=O)NCCCN)C(C)(C)C)OC1=O [Compound 4] | 0.000415 µg/mL and 0.626 nM | 0.00031 µg/mL and 0.468 nM | 7.9e-05 µg/mL and 0.12 nM | 0.000358 µg/mL and 0.539 nM | 0.00093 µg/mL and 1.4 nM | 0.00091 µg/mL and 1.37 nM | > 15.1 nM and > 0.01 µg/mL |  | 7.9e-05 µg/mL to 0.00265 µg/mL and 0.12 nM to 4 nM | 0.00084 µg/mL and 1.2 nM | 0.00057 µg/mL to 0.0014 µg/mL and 0.86 nM to 2.1 nM | 0.00097 µg/mL and 1.5 nM | 0.00063 µg/mL to 0.0027 µg/mL and 0.95 nM to 4.1 nM | 0.0013 µg/mL and 1.9 nM | 0.00061 µg/mL to 0.0027 µg/mL and 0.92 nM to 4.1 nM | 0.0012 µg/mL and 1.8 nM | 0.000278 µg/mL | 9.38 | 0.00057 µg/mL | 9.07 | pIC50 ([6]; read-out: IC50): 8.86; IC20 ([8]; C#18 (null CD5)): 0.00677 µg/mL and 10.2 nM; mean IC50 value across the whole cell panel ([9]; CD13+ and CD13− lines): 1.2 nM; reduction of cytotoxic activity as compared to Compound 40 ([11]; amine containing group): around 1 log
COC1=CC[C@@H]([C@@H](C)/C=C(C)/C=C\C=C/C(=O)N[C@H](C(=O)N/C=C\C[C@H](C/C=C(\C)Cl)OC(N)=O)C(C)(C)C)OC1=O [Compound 40] |  |  | 3.1e-05 µg/mL and 0.052 nM |  |  | 9.3e-05 µg/mL and 0.154 nM | 0.89 ng/mL | 8.83 | 0.031 to 0.17 ng/mL (≈ 0.0511 to 0.28 nM) | 8.6e-05 µg/mL and 0.14 nM | 8.6e-05 µg/mL to 0.00011 µg/mL and 0.14 nM to 0.19 nM | 9.6e-05 µg/mL and 0.16 nM | 7.5e-05 µg/mL to 0.00036 µg/mL and 0.12 nM to 0.59 nM | 0.00016 µg/mL and 0.26 nM | 0.13 nM to 0.47 nM and 7.9e-05 µg/mL to 0.00028 µg/mL | 0.00015 µg/mL and 0.25 nM | 7.9e-05 µg/mL | 9.88 | 8.65e-05 µg/mL and 0.00012 µg/mL | 9.84 and 9.70 | IC50 [1]: 0.000132 µg/mL and 0.218 nM; IC50 [2]: 0.000173 µg/mL and 0.284 nM; IC50 [6]: 0.00013 µg/mL; pIC50 ([6]; read-out: IC50): 9.85 and 9.67
